Test [1] has as its system T-cell. Description: Immunosuppressive activity against human peripheral blood T cells assessed as inhibition of PMA and anti-CD28 monoclonal antibody-costimulated IL2 secretion at 50 ug/ml by ELISA. In kind it is functional, cell-based. (In general: In an ELISA, binding on a coated surface is turned into a signal by an enzyme label.)
In test [2] the test system is T-cell. Description: Immunosuppressive activity against human peripheral blood T cells assessed as inhibition of PMA and anti-CD28 monoclonal antibody-costimulated IL2 secretion at 100 ug/ml by ELISA. In kind it is functional, cell-based.

Calls of active or inactive are those of the source. The calls are words filed in the database; no cut-off is given here.

Among the data in ChEMBL document CHEMBL1158838, “Immunosuppressive iridoids from the fruits of Gardenia jasminoides” (J Nat Prod, 2005) are Activity values, retold here.

For the compound `COC(=O)C1=CO[C@@H](O[C@@H]2O[C@H](CO)[C@@H](O)[C@H](O)[C@H]2O)[C@@H]2C(CO)=C[C@H](O)[C@H]12`, the outcome in the test on T-cell [1] and with T-cell [2] was Active.
Take `COC(=O)C1=CO[C@@H](O[C@@H]2O[C@H](CO)[C@@H](O)[C@H](O)[C@H]2O)[C@@H]2C(CO)=C[C@@H](O)[C@H]12`: the result with T-cell [2] was Active.
With `C[C@]1(O)C[C@@H](O)[C@@H]2C(C(=O)O)=CO[C@@H](O[C@@H]3O[C@H](CO)[C@@H](O)[C@H](O)[C@H]3O)[C@@H]21`, the result in the test on T-cell [1] and in the test with T-cell [2] was Active.
For the compound `C[C@]1(O)C[C@H](O)[C@@H]2C(C=O)=CO[C@@H](O[C@@H]3O[C@H](CO)[C@@H](O)[C@H](O)[C@H]3O)[C@@H]21`, the result with T-cell [1] and with T-cell [2] was Active.
For `COC(=O)C1=CO[C@@H](O[C@@H]2O[C@H](CO[C@@H]3O[C@H](CO)[C@@H](O)[C@H](O)[C@H]3O)[C@@H](O)[C@H](O)[C@H]2O)[C@@H]2C(CO)=CC[C@H]12`, the result in the test with T-cell [2] was Active.
With `COC(=O)C1=CO[C@@H](O[C@@H]2O[C@H](CO)[C@@H](O)[C@H](O)[C@H]2O)[C@@H]2C(CO)=CC[C@H]12`, the result in the test with T-cell [1] and in the test on T-cell [2] was Active.
